Laboratory results reported in paper PMC10883716, “Conformational dynamics of adenylate kinase in crystals” (Structural Dynamics, 2024).

Key:
[1] = molecular target: T1, AKign (adenylate kinase from Methanotorrus igneus) (Methanotorris igneus, UniProt P43408); assay: X-ray crystallography, […] A; assay type: binding; details: 4 mM Ap5A, 17% PEG 3350, 250 mM sodium malonate, 20 °C; one per protomer, spans AMP and ATP sites
T1 construct: gene adkA; full length, residues 1-192; synthetic gene in pET21a, C-terminal His6 tag kept (disordered, unbuilt); E. coli BL21(DE3); homotrimer
T1 sequence (P43408 whole entry, the tested form may be a part): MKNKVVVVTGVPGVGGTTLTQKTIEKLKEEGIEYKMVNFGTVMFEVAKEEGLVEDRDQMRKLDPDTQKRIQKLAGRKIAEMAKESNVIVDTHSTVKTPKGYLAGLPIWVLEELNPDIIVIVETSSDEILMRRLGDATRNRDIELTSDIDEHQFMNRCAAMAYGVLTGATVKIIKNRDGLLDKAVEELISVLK

[2] = molecular target: T1, AKign (adenylate kinase from Methanotorrus igneus); assay: X-ray crystallography, […] A; assay type: binding; details: 4 mM AMP, 8% PEG 8000, 100 mM magnesium acetate, sodium acetate pH 4.5, 20 °C; two per protomer, in AMP and ATP sites

Nc1ncnc2c1ncn2[C@@H]1O[C@H](COP(=O)(O)OP(=O)(O)OP(=O)(O)OP(=O)(O)OP(=O)(O)OC[C@H]2O[C@@H](n3cnc4c(N)ncnc43)[C@H](O)[C@@H]2O)[C@@H](O)[C@H]1O [Ap5A, P^1,P^5-di(adenosine 5′)-pentaphosphate]
X-ray crystallography, 2.25 A [1]: We also solved the AKign structure with the bound inhibitor, Ap5A.

Nc1ncnc2c1ncn2[C@@H]1O[C@H](COP(=O)(O)O)[C@@H](O)[C@H]1O [AMP]
X-ray crystallography, 2.40 A [2]: AMP-bound AKign structure, which comprises two bound AMP molecules per AKign protomer
